Measured values: publication PMC6159918 (Peptides, 2018)
Where two headings read alike, the source gives them in different places.

Experiments:
NMBR [1] = molecular target: NMBR (Homo sapiens, UniProt P28336); assay: [3H]IP production, NMBR agonist/antagonist; assay type: cell-based; conditions: Peptide #1 (10 nM) + PD 1 μM; NCI-H727 (carcinoid); control 143 ± 21
NMBR [2] = assay: [3H]IP production, NMBR agonist/antagonist; assay type: cell-based, human
human BRS-3-receptor [3] = molecular target: T1, human BRS-3-receptor (Homo sapiens, UniProt P32247); assay: [3H]-inositol phosphates; assay type: cell-based; conditions: for decrease in [3H]IP-production stimulated by MK-5046 / inhibition of [3H]IP-production caused by peptide #1: Bantag-1 100 nM; for decrease in [3H]IP-production stimulated by MK-5046: MK-5046 10 nM; for inhibition of [3H]IP-production caused by peptide #1: peptide #1 10 nM
T1 sequence (P32247 1-399): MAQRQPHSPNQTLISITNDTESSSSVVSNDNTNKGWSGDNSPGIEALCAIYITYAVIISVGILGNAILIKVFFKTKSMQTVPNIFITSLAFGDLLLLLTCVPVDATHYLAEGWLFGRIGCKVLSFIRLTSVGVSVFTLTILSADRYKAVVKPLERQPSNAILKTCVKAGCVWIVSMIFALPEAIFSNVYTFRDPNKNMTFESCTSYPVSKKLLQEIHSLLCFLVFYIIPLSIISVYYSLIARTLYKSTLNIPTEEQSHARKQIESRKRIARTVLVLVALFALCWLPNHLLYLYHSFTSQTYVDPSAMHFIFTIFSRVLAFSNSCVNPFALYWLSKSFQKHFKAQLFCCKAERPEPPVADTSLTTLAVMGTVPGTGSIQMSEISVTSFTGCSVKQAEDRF

human BRS-3-receptor [4] = molecular target: T1, human BRS-3-receptor; assay: Cytosolic Ca2+; assay type: cell-based
GRPR = assay type: cell-based, human

NMBR (Homo sapiens, UniProt P28336), sequence (P28336 whole entry): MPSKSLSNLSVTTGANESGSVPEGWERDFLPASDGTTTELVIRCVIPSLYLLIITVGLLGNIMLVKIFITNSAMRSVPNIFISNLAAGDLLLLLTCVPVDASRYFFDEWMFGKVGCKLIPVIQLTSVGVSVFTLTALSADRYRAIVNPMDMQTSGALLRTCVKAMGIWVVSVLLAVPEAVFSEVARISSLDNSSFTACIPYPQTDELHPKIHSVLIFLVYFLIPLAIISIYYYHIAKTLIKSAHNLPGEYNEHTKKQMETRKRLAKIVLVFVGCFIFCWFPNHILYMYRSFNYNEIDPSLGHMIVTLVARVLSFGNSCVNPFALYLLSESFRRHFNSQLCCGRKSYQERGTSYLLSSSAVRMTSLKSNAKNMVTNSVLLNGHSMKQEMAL

In the case of C[C@@](Cc1c[nH]c2ccccc12)(NC(=O)Nc1ccc([N+](=O)[O-])cc1)C(=O)NCC1(c2ccccn2)CCCCC1 [PD168368], the “[3H]IP (DPM)” value (NMBR [1]) is reported as 157 ± 48 DPM, the “[3H]IP (DPM)” value (NMBR [2]; Peptide #1 (10 nM) + PD 1 μM, Balb-3T3 BRS-3 transfected, control 2487 ± 185) is reported as 15006 ± 769 DPM and the “[3H]IP (DPM)” value (NMBR [2]; Peptide #1 (10 nM) + PD 1 μM, NCI-H69 (SCLC), control 177 ± 27) is reported as 471 ± 121 DPM. The “[3H]IP (DPM)” value (NMBR [2]; Peptide #1 (10 nM) + PD 1 μM, NCI-N417 (SCLC), control 660 ± 87) was 2176 ± 518 DPM.
For “Boc-Phe-His-4-amino-5-cyclohexyl-2, 4, 5-trideoxypentonyl-Leu- (3-dimethylamino)benzyl amide-N-methyl ammonium trifluoroacetate [Bantag-1]”, the “decrease in [3H]IP-production stimulated by MK-5046” value (“decrease” below) (human BRS-3-receptor [3]; BRS-3/Balb-cells) was 93%, the “decrease” value (human BRS-3-receptor [3]; NCI-H69) was 81% and the “decrease” value (human BRS-3-receptor [3]; NCI-H727) was 75%. The “decrease” value (human BRS-3-receptor [3]; NCI-N417) was 99%, the “inhibition of [3H]IP-production caused by peptide #1” value (from here on “inhibition … by peptide #1”) (human BRS-3-receptor [3]; BRS-3/Balb-cells) was 82% and the “inhibition … by peptide #1” value (human BRS-3-receptor [3]; NCI-H69-cells) was 83%. The “inhibition … by peptide #1” value (human BRS-3-receptor [3]; NCI-N417-cells) was 68%, the “[3H]IP (DPM)” value (human BRS-3-receptor [3]; MK-5046 10 nM + Bantag 100 nM, Balb-3T3 BRS-3 transfected, control 2487 ± 185) was 3697 ± 1064 DPM and the “[3H]IP (DPM)” value (human BRS-3-receptor [3]; MK-5046 10 nM + Bantag 100 nM, NCI-H69 (SCLC), control 177 ± 27) was 256 ± 56 DPM. The “[3H]IP (DPM)” value (human BRS-3-receptor [3]; MK-5046 10 nM + Bantag 100 nM, NCI-H727 (carcinoid), control 143 ± 21) was 215 ± 25 DPM, the “[3H]IP (DPM)” value (human BRS-3-receptor [3]; MK-5046 10 nM + Bantag 100 nM, NCI-N417 (SCLC), control 660 ± 87) was 678 ± 82 DPM and the “[3H]IP (DPM)” value (human BRS-3-receptor [3]; Peptide #1 (10 nM) + Bantag 100 nM, NCI-H69 (SCLC), control 177 ± 27) was 265 ± 35 DPM. The “[3H]IP (DPM)” value (human BRS-3-receptor [3]; Peptide #1 (10 nM) + Bantag 100 nM, NCI-H727 (carcinoid), control 143 ± 21) was 176 ± 27 DPM, the “[3H]IP (DPM)” value (human BRS-3-receptor [3]; Peptide #1 (10 nM) + Bantag 100 nM, NCI-N417 (SCLC), control 660 ± 87) was 1125 ± 154 DPM and the “inhibition of MK-5046 stimulated increases in cytosolic calcium” value (human BRS-3-receptor [4]; Bantag-1 1000 nM, two cell lines (NCI-H727, H782)) was “completely inhibited”. For the same compound, the “inhibition of MK-5046 stimulation of increases in (Ca2+)i” value (human BRS-3-receptor [4]; NCI-82, NCI-H460 and NCI-H727 cells) was “inhibited”.
For [D-Phe^6]Bombesin-(6–13)-methyl ester, the “[3H]IP (DPM)” value (GRPR; Peptide #1 (10 nM) + ME 1 μM, Balb-3T3 BRS-3 transfected, control 2487 ± 185) was 16107 ± 100 DPM and the “[3H]IP (DPM)” value (GRPR; Peptide #1 (10 nM) + ME 1 μM, NCI-N417 (SCLC), control 660 ± 87) was 2513 ± 662 DPM.
In the case of “[D-Tyr^6, β-Ala^11, Phe^13, Nle^14]Bn- (6–14) [Peptide #1]”, the “[3H]IP (DPM)” value (human BRS-3-receptor [3]; Peptide #1 10 nM, Balb-3T3 BRS-3 transfected, control 2487 ± 185) is reported as 16341 ± 1071 DPM, the “[3H]IP (DPM)” value (human BRS-3-receptor [3]; Peptide #1 10 nM, NCI-H69 (SCLC), control 177 ± 27) is reported as 680 ± 73 DPM and the “[3H]IP (DPM)” value (human BRS-3-receptor [3]; Peptide #1 10 nM, NCI-H727 (carcinoid), control 143 ± 21) is reported as 235 ± 25 DPM. For the same compound, the “[3H]IP (DPM)” value (human BRS-3-receptor [3]; Peptide #1 10 nM, NCI-N417 (SCLC), control 660 ± 87) was 2131 ± 244 DPM.
For gastrin-releasing peptide [GRP], the “[3H]IP (DPM)” value (GRPR; GRP 100 nM, Balb-3T3 BRS-3 transfected, control 2487 ± 185) was 2519 ± 744 DPM, the “[3H]IP (DPM)” value (GRPR; GRP 100 nM, NCI-N417 (SCLC), control 660 ± 87) was 881 ± 204 DPM and the “[3H]IP (DPM)” value (GRPR; GRP 1 μM, NCI-N417 (SCLC), control 660 ± 87) was 724 ± 138 DPM. The “PLC activation in 4 cell-lines (NCI-H69, NCI-N417, NCI-H727, BRS-3/Balb)” value (GRPR; GRP at 10 nM and 100 nM) was “activated PLC only in NCI-H727-cells”.
For neuromedin B [NMB], the “[3H]IP (DPM)” value (NMBR [2]; NMB 100 nM, Balb-3T3 BRS-3 transfected, control 2487 ± 185) was 2697 ± 720 DPM, the “[3H]IP (DPM)” value (NMBR [2]; NMB 100 nM, NCI-H69 (SCLC), control 177 ± 27) was 186 ± 20 DPM and the “[3H]IP (DPM)” value (NMBR [2]; NMB 100 nM, NCI-N417 (SCLC), control 660 ± 87) was 706 ± 132 DPM. The “[3H]IP (DPM)” value (NMBR [2]; NMB 1 μM, Balb-3T3 BRS-3 transfected, control 2487 ± 185) was 2652 ± 838 DPM, the “[3H]IP (DPM)” value (NMBR [2]; NMB 1 μM, NCI-H69 (SCLC), control 177 ± 27) was 187 ± 37 DPM and the “[3H]IP (DPM)” value (NMBR [2]; NMB 1 μM, NCI-N417 (SCLC), control 660 ± 87) was 707 ± 137 DPM. For the same compound, the “PLC activation in 4 cell-lines (NCI-H69, NCI-N417, NCI-H727, BRS-3/Balb)” value (NMBR [2]; NMB at 10 nM and 100 nM) was “activated PLC only in NCI-H727-cells”.
